For data set [1] the following is noted: cited from earlier work.
Data set [2] deals with Aβ. The protocol: Wild-type C57B1/6 and DBA/2J male mice (age 8-12 weeks) were administered drug or vehicle twice daily for 7 days by intraperitoneal injection.
Animals were sacrificed 12 hr after the last injection. Individual mice were anesthetized with isoflurane and blood samples (100-300 ul) taken by cardiac puncture with heparinized syringes. Samples were placed on ice for 30 minutes in the presence of EDTA and then centrifuged for 20 minutes at 16,000×g at 4° C. The plasma fraction was removed and stored at −80° C. Brains were removed and frozen rapidly on dry ice and stored at −80° C.
Detection of mouse Aβ1-40 in blood and brain samples was performed by using a commercially available immunoassay kit (Biosource mouse Aβ1-40, Catalog No. KMB3481, Invitrogen, Carlsbad, Calif.) or by Western blot. Mouse brain samples were prepared by homogenizing brain tissue in a polytron in the presence of 5M guanidine HCl and 50 mM Tris HCl, pH 8.0 as described in the assay protocol.
Blood samples were diluted 1:5 in standard diluent buffer. Samples were assayed in duplicate and OD450 measured on a Tecan infinite 2000 plate reader.
For Western blots, samples were subjected to P AGE analysis, transferred to PVDF membranes and the Aβ hexamers were visualized using a monoclonal antibody 4G8 directed against mouse Aβ (1:1,000; Covance) using the manufacturer's recommended protocol. Blots were scanned by densitometry, and then reprobed with an antibody to histone H3 (1:50,000; Abcam) as a loading and transfer control. Data are depicted as normalized optical density.

For data set [3] the following is noted: cited from earlier work. This is another data set of the same source.
The conditions of data set [4]: cited from earlier work. This is another data set of the same source.
The next data set concerns the target T1, Abl kinase (Homo sapiens, UniProt P00519).
T1 construct: purchased Millipore, Temecula, Calif
Nature of the data set: Abl kinase activity, 32P-ATP / Abltide peptide, scintillation counting. As to conditions: for Abl kinase activity, CPM (single assay): duplicates 1 and 2. It counts as biochemical. The protocol:
The following were combined in order:
10 μL 2.5× kinase assay buffer
2.5 μL Abl kinase (Millipore, Temecula, Calif.)
1 μL DMSO vehicle or inhibitor in DMSO on ice
2.5 μL Abltide synthetic peptide substrate, biotin-tagged (Millipore, Temecula, Calif.) • Incubate at 30° C. for 10 min.; • Stop by the addition of 12.5 μL 7.5M guanidine HCL to each reaction, vortex. • Spot 12.5 μL on SAM2 biotin capture membrane (Promega Corp., Madison, Wis.) • Wash the membrane (4×2M NaCl; 4×2M NaCl, 1% H3PO4, 2×H2O, at room temp.) • Kinase activity was determined by scintillation counting. • The Scintillation count: final drug concentration shown • Each assay was performed in duplicate.

Data set [5] deals with Aβ. The experiment in a line: Aβ in media of SYSY-APP cells, Covance ELISA. It counts as cell-based. The procedure: • 1. Thaw SYSY-APP cells, add to warmed high glucose DMEM with 10% serum, pen-strep in t-75 flask. In 2 days, split culture into 4 flasks. Collect cells from 3 and freeze in liquid N2. Use remaining culture for experiment. • 2. Seed 24-well plate with cells in same media. Grow to confluence. • 3. […] After 16 hr incubation, isolate media, add 10 ul protease inhibitor and spin out cells and debris (3000×g); • 4.
Background: An ELISA detects its analyte on a solid surface through an enzyme-linked reagent.

Where [6] appears, read: 20 mg/kg IP twice daily 7 days, young and old B mice.

“And” between values parts separate entries of the source, which are not always exact repeats. Identical values can stand only once. Counter-ions that a name gives are not always drawn. Like-named read-outs stand apart in the source and are kept apart here.

T1 sequence (P00519 whole entry): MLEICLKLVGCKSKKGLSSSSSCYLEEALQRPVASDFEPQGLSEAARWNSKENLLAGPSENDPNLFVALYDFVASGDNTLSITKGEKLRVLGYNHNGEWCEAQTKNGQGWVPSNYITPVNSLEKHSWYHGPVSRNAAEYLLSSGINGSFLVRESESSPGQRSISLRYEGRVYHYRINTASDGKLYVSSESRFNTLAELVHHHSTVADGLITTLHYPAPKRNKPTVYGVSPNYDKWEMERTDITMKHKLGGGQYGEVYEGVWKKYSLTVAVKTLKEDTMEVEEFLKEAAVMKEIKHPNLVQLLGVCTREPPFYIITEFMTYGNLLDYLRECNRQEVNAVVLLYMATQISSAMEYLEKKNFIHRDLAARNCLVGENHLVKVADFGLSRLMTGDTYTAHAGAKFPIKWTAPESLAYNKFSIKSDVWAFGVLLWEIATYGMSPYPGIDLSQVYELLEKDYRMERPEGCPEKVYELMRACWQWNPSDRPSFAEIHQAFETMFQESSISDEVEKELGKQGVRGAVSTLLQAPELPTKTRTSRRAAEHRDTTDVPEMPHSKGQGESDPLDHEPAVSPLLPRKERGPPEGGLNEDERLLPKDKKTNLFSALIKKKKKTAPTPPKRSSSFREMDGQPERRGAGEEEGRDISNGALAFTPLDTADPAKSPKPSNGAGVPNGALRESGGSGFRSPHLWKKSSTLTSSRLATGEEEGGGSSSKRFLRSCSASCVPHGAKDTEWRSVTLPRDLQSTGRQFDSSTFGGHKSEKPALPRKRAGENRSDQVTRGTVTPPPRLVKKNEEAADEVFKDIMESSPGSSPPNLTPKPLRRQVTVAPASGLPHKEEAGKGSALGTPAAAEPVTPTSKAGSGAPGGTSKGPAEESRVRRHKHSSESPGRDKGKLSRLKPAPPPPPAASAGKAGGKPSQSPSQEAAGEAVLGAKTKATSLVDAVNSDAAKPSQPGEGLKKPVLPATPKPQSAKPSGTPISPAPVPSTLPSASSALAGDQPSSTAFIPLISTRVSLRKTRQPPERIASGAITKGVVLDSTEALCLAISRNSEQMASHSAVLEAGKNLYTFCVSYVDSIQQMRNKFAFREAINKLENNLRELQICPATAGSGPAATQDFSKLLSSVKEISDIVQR

On to `Cc1ccc(NC(=O)c2ccc(CN3CCN(C)CC3)cc2)cc1Nc1nccc(-c2cccnc2)n1` [imatinib, reference compound], for which the “Cmax (time)” value in data set [1] (oral administration in pediatric patients) is 2 to 4 h.
For the compound `Cc1ccc(NC(=O)c2ccc(CN3CCN(C)CC3)cc2)cc1Nc1nccc(-c2cccnc2)n1` [STI-571], in the data set on Aβ [2] (setting [6]), the “reduction of brain levels of Aβ” value is “approximately 50%” and the “reduction of plasma levels of Aβ” value is on record as “approximately 50%”. Further, the “reduction of circulating (plasma) Aβ” value in the data set on Aβ [2] (highest dose (100 mg/kg) IP twice daily 7 days, young D2 mice) is on record as “approximately 75%”.
`COc1ccc(-c2nc3ncccc3[nH]2)c(OC)c1.Cl` [ARL-57]: the log P (commonly a log measure of how a compound divides between an organic and an aqueous phase) in data set [3] (pH 8) is reported as 2.59. Also, in data set [4] (in vivo), the “CNS side effects (in words)” value was “spectacular bright color vision”.
Take `COc1cc([S+](C)[O-])ccc1-c1nc2ncccc2[nH]1` (stereo not drawn) [ARL115, sulmazole]: the “log P, calcd.” value in data set [3] (calculated value) is on record as 1.82. Besides, the “CNS side effects (in words)” value in data set [4] (humans) is listed as “lack the CNS side effects”.
Regarding `Cc1ccc(NC(=O)c2ccc(CN3CCNCC3)cc2)cc1Nc1nccc(-c2cccnc2)n1` [N-desmethyl imatinib], the “Abl kinase activity, CPM (single assay)” value on Abl kinase (10 μM final drug concentration, DMSO vehicle 2837/2956) is 540 CPM and 649 CPM; at Abl kinase (30 μM final drug concentration), 149 CPM. For the same compound, the “Abl kinase activity, AVERAGE of the two assays” value at Abl kinase (10 μM, DMSO vehicle average 2897) came to 595 CPM; at Abl kinase (30 μM), 149 CPM; on Abl kinase (100 μM) it was 107 CPM. The “Abl kinase inhibition (in words)” value at Abl kinase (concentrations 10 to 100 μM, FIG. 8) was “inhibits Abl kinase less than does imatinib”. Moreover, the “reduction of Aβ compared with imatinib (in words)” value in the data set with Aβ [5] (3-100 uM, 16 hr, 100 μL aliquot, FIG. 6) was “more effective reduction of Aβ than does imatinib”. Besides, in data set [1] (humans), the “plasma AUC of the metabolite as share of the AUC for imatinib” value is reported as “about 15%”. Besides, the elimination half-life in data set [1] (oral administration in healthy volunteers) is approximately 40 h.
Consider `Cc1cc(NC(=O)c2ccc(CN3CCN(C)CC3)cc2)ccc1Nc1nccc(-c2cccnc2)n1` [Imatinib para-diaminomethylbenzene 3 HCl], for which, in the data set with Aβ [5] (3-100 μM, 150 μL media supernatant, FIG. 7), the “effect on Aβ concentration (in words)” value is given as “stronger inhibition of Aβ than does imatinib”.

Source of the values: patent US9707231B2, “Compositions and methods for reduction of amyloid-beta load” (Modgene, LLC, priority 2011, dated 2017).
